Test results from ChEMBL document CHEMBL1136650, “Glycine alpha-ketoamides as HCV NS3 protease inhibitors” (Bioorg Med Chem Lett, 2003).
Numbered stars: 1 amine (or outer) side, 2 acyl side, 3 side chain; on linkers, the order of the positions; unused ones are H or OH. Square brackets hold non-standard residues; d marks the D form. Peptide text beside a SMILES is read from it. * marks the point of attachment. Abu(ψCOCO) = CC[C@H](N[*:1])C(=O)C(=O)[*:2]; X1 = O=C(C(=O)[*:2])[C@H](CC(F)F)N[*:1]; Pyrazinecarbonyl = O=C(c1cnccn1)*; X2 = CC(C)(N[*:1])C(=O)C(=O)[*:2]; X3 = O=C(C(=O)[*:2])C1(N[*:1])CC1; Cha = N[C@@H](CC1CCCCC1)C(=O)O; Aib = CC(C)(N)C(=O)O; NHAllyl = C=CCN*; Sar = CNCC(=O)O

Biological target: Genome polyprotein (Hepatitis C virus genotype 1a (isolate 1) (HCV), UniProt P26664)
Test: Inhibitory concentration against HCV NS3 protease was determined

Sequence of Genome polyprotein (P26664 1027-1657 limits assumed): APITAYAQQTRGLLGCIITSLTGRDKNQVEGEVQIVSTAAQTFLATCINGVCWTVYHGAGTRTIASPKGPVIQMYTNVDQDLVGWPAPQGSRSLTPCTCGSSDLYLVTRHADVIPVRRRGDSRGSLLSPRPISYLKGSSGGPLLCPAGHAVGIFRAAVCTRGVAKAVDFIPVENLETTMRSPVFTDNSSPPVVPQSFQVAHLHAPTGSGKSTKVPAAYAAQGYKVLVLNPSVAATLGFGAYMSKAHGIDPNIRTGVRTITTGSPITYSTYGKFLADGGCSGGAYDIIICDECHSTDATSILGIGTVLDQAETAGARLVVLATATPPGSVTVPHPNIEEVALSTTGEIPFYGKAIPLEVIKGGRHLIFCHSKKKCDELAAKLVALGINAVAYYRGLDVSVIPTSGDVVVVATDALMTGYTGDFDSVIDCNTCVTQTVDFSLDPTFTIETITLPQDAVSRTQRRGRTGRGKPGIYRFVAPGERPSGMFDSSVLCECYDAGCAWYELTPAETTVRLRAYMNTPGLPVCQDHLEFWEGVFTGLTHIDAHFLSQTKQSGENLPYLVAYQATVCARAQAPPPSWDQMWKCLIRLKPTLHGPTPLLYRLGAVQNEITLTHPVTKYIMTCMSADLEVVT

## CC[C@H](NC(=O)[C@H](CC1CCCCC1)NC(=O)[C@@H](NC(=O)[C@H](CC(C)C)NC(=O)c1cnccn1)[C@@H](C)CC)C(=O)C(=O)N1CCOCC1
  IC50: > 60 µM

## CCNC(=O)C(=O)[C@H](CC)NC(=O)[C@H](CC1CCCCC1)NC(=O)[C@@H](NC(=O)[C@H](CC(C)C)NC(=O)c1cnccn1)[C@@H](C)CC
  IC50: 1.8 µM

## CC[C@H](NC(=O)[C@H](CC1CCCCC1)NC(=O)[C@@H](NC(=O)[C@H](CC(C)C)NC(=O)c1cnccn1)[C@@H](C)CC)C(=O)C(=O)NCc1ccccc1
  IC50: 11 µM

## CC[C@H](NC(=O)[C@H](CC1CCCCC1)NC(=O)[C@@H](NC(=O)[C@H](CC(C)C)NC(=O)c1cnccn1)[C@@H](C)CC)C(=O)C(=O)NC1CC1
  IC50: 2.2 µM

## CC[C@H](NC(=O)[C@H](CC1CCCCC1)NC(=O)[C@@H](NC(=O)[C@H](CC(C)C)NC(=O)c1cnccn1)[C@@H](C)CC)C(=O)C(=O)N[C@H](C)C(=O)O
  IC50: > 60 µM

## CC[C@H](NC(=O)[C@H](CC1CCCCC1)NC(=O)[C@@H](NC(=O)[C@H](CC(C)C)NC(=O)c1cnccn1)[C@@H](C)CC)C(=O)C(=O)NCCC(=O)O
  IC50: 12 µM

## C=CCNC(=O)C(=O)[C@H](CC)NC(=O)[C@H](CC1CCCCC1)NC(=O)[C@@H](NC(=O)[C@H](CC(C)C)NC(=O)c1cnccn1)[C@@H](C)CC
  IC50: 2.7 µM

## CC[C@H](NC(=O)[C@H](CC1CCCCC1)NC(=O)[C@@H](NC(=O)[C@H](CC(C)C)NC(=O)c1cnccn1)[C@@H](C)CC)C(=O)C(=O)N1CCCC1
  IC50: 42 µM

## CC[C@H](NC(=O)[C@H](CC1CCCCC1)NC(=O)[C@@H](NC(=O)[C@H](CC(C)C)NC(=O)c1cnccn1)[C@@H](C)CC)C(=O)C(=O)N[C@@H](C)C(=O)O
  IC50: 1.3 µM

## C#CCNC(=O)C(=O)[C@H](CC)NC(=O)[C@H](CC1CCCCC1)NC(=O)[C@@H](NC(=O)[C@H](CC(C)C)NC(=O)c1cnccn1)[C@@H](C)CC
  IC50: 1.6 µM

## C=CCNC(=O)C(=O)[C@H](CC)NC(=O)[C@@H]1CCCN1C(=O)[C@@H](NC(=O)[C@@H](NC(=O)[C@H](CCC(=O)O)NC(=O)[C@@H](N)CC(=O)O)C(C)C)C(C)C (H-DEVVP[Abu(ψCOCO)]-NHAllyl)
  IC50: 0.42 µM

## CC[C@H](NC(=O)[C@H](CC1CCCCC1)NC(=O)[C@@H](NC(=O)[C@H](CC(C)C)NC(=O)c1cnccn1)[C@@H](C)CC)C(=O)C(=O)N[C@@H](CC(=O)O)C(=O)O (Pyrazinecarbonyl-LI[Cha][Abu(ψCOCO)]D-OH)
  IC50: 5.3 µM

## CC[C@H](NC(=O)[C@H](CC1CCCCC1)NC(=O)[C@@H](NC(=O)[C@H](CC(C)C)NC(=O)c1cnccn1)[C@@H](C)CC)C(=O)C(=O)NCC(N)=O (Pyrazinecarbonyl-LI[Cha][Abu(ψCOCO)]G-NH2)
  IC50: 4.3 µM

## CC[C@H](NC(=O)[C@H](CC1CCCCC1)NC(=O)[C@@H](NC(=O)[C@H](CC(C)C)NC(=O)c1cnccn1)[C@@H](C)CC)C(=O)C(=O)NCC(=O)O (Pyrazinecarbonyl-LI[Cha][Abu(ψCOCO)]G-OH)
  IC50: 0.23 µM

## CC[C@H](NC(=O)[C@H](CC1CCCCC1)NC(=O)[C@@H](NC(=O)[C@H](CC(C)C)NC(=O)c1cnccn1)[C@@H](C)CC)C(=O)C(=O)NCC(=O)OC (Pyrazinecarbonyl-LI[Cha][Abu(ψCOCO)]G-OMe)
  IC50: 5.8 µM

## CC[C@H](NC(=O)[C@H](CC1CCCCC1)NC(=O)[C@@H](NC(=O)[C@H](CC(C)C)NC(=O)c1cnccn1)[C@@H](C)CC)C(=O)C(=O)N[C@@H](CCCCN)C(=O)O (Pyrazinecarbonyl-LI[Cha][Abu(ψCOCO)]K-OH)
  IC50: 7.7 µM

## CC[C@H](NC(=O)[C@H](CC1CCCCC1)NC(=O)[C@@H](NC(=O)[C@H](CC(C)C)NC(=O)c1cnccn1)[C@@H](C)CC)C(=O)C(=O)N[C@H](C(=O)O)C(C)C (Pyrazinecarbonyl-LI[Cha][Abu(ψCOCO)]V-OH)
  IC50: 3.6 µM

## CC[C@H](NC(=O)[C@H](CC1CCCCC1)NC(=O)[C@@H](NC(=O)[C@H](CC(C)C)NC(=O)c1cnccn1)[C@@H](C)CC)C(=O)C(=O)NC(C)(C)C(=O)O (Pyrazinecarbonyl-LI[Cha][Abu(ψCOCO)][Aib]-OH)
  IC50: > 60 µM

## CC[C@H](NC(=O)[C@H](CC1CCCCC1)NC(=O)[C@@H](NC(=O)[C@H](CC(C)C)NC(=O)c1cnccn1)[C@@H](C)CC)C(=O)C(=O)N(C)CC(=O)O (Pyrazinecarbonyl-LI[Cha][Abu(ψCOCO)][Sar]-OH)
  IC50: > 60 µM

## CC[C@H](C)[C@H](NC(=O)[C@H](CC(C)C)NC(=O)c1cnccn1)C(=O)N[C@@H](CC1CCCCC1)C(=O)N[C@@H](CC(F)F)C(=O)C(=O)NCC(=O)O (Pyrazinecarbonyl-LI[Cha][X1]G-OH)
  IC50: 0.06 µM

## CC[C@H](C)[C@H](NC(=O)[C@H](CC(C)C)NC(=O)c1cnccn1)C(=O)N[C@@H](CC1CCCCC1)C(=O)NC(C)(C)C(=O)C(=O)NCC(=O)O (Pyrazinecarbonyl-LI[Cha][X2]G-OH)
  IC50: > 60 µM

## CC[C@H](C)[C@H](NC(=O)[C@H](CC(C)C)NC(=O)c1cnccn1)C(=O)N[C@@H](CC1CCCCC1)C(=O)NC1(C(=O)C(=O)NCC(=O)O)CC1 (Pyrazinecarbonyl-LI[Cha][X3]G-OH)
  IC50: > 60 µM
